Counter-ions that a name gives are not always drawn.
Assays:
Assay type in all cases: biochemical
[1] = target: T1, recombinant human MAO-B (monoamine oxidase-B) (Homo sapiens, UniProt P27338); test: Activity on recombinant human MAO-B, Amplex Red method, 1 mM benzylamine substrate; conditions: 1 mM benzylamine substrate, read-out: Inhibitory Activity (IC50, nM) MAO-B
T1 construct: purchased Sigma-Aldrich
T1 sequence (P27338 1-520): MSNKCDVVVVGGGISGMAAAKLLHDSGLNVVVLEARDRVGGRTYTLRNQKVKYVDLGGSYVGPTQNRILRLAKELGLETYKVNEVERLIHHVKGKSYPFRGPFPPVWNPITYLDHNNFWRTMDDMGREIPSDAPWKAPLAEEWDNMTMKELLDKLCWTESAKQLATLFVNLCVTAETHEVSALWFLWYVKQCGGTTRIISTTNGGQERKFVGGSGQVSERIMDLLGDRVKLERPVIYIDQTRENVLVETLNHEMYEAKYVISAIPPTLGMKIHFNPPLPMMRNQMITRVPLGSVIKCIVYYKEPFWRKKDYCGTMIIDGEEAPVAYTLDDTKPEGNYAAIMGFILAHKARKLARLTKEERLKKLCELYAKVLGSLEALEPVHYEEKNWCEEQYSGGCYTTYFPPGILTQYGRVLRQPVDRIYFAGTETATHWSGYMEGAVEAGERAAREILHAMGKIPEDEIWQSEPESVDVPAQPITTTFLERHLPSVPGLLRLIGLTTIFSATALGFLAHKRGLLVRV
Method in brief: (§1)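 Enzyme in pH 7.4 phosphate buffer; 30 min, 37° C with compound (DMSO <1%); start with 200 uM Amplex Red + 1 U/mL HRP + tyramine 0.5 mM (MAO-A) or benzylamine 1 mM (MAO-B); kinetic read ex 544/em 590, 1-2 h; % rate decrease vs DMSO control → IC50, 4-parameter fit.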

recombinant human VAP-1 = target: T2, recombinant human VAP-1 (Homo sapiens, UniProt Q16853); test: Activity on recombinant human VAP-1, Amplex Red HRP-coupled hydrogen peroxide assay, benzylamine substrate; conditions: recombinant human VAP-1, benzylamine substrate; read-out: Inhibitory Activity (IC50, nM) human VAP-1
T2 construct: purchased R&D systems
T2 sequence (Q16853 1-763): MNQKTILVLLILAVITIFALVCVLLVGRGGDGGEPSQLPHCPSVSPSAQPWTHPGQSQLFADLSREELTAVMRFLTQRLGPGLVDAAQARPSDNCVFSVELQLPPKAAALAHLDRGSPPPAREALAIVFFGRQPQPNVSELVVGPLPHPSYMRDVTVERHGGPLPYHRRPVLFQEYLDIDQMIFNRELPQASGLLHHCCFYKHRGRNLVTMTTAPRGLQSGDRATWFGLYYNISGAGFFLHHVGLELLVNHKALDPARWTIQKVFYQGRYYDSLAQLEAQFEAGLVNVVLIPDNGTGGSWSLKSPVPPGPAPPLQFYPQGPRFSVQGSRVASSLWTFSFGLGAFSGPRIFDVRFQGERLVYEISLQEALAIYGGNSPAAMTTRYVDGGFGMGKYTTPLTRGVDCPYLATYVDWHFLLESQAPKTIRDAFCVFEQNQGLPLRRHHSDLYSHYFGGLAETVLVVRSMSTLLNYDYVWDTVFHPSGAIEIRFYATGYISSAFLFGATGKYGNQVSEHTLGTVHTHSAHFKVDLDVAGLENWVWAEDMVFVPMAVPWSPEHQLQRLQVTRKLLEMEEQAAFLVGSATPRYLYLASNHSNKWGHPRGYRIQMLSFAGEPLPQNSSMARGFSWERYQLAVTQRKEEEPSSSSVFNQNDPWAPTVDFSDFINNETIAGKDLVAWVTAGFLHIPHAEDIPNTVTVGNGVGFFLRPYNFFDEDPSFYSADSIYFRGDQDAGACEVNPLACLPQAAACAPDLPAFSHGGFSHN
Method in brief: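 Enzyme in 50 mM sodium phosphate (pH 7.4) is exposed to test compound for 30 min at 37 °C. Benzylamine (1 mM) with HRP and Amplex Red then starts the reaction, and the fluorescence rate, relative to a DMSO-only control, gives IC50.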

[2] = target: T3, recombinant human DAO (diamine oxidase) (Homo sapiens, UniProt P19801); test: Activity on recombinant human DAO, Amplex Red method, 1 mM putrescine substrate; conditions: recombinant human DAO, 1 mM putrescine substrate; read-out: Inhibitory Activity (IC50, nM) DAO
T3 construct: purchased R&D systems
T3 sequence (P19801 20-751): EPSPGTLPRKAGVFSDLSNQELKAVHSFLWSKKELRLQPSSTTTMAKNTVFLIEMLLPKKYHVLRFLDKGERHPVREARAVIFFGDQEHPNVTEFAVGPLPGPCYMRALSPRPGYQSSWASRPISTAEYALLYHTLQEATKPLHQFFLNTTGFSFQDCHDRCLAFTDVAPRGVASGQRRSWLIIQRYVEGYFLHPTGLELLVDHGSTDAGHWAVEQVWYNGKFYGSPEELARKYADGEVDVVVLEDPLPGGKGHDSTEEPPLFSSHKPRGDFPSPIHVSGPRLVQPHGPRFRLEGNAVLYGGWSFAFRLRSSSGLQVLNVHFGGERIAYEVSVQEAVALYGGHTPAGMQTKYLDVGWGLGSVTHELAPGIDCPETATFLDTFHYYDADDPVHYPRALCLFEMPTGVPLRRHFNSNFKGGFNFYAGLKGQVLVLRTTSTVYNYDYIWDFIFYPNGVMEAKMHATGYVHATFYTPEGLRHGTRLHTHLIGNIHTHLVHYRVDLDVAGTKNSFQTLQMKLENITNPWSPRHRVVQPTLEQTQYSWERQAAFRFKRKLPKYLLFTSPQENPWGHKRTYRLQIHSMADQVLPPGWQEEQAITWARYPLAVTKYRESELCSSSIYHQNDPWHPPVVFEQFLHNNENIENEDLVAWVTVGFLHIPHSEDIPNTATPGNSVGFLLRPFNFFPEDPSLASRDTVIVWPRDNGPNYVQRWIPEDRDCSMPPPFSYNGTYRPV
Method in brief: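 Inhibition of recombinant human DAO (diamine oxidase, R&D systems) was assessed with the Amplex Red Hydrogen Peroxide Assay Kit. Hydrogen peroxide produced from 1 mM putrescine was detected through an HRP-coupled reaction that converts Amplex Red into fluorescent resorufin, read at 544 nm excitation and 590 nm emission. IC50 values came from four-parameter logistic fits in GraphPad Prism.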

[3] = target: T4, recombinant human MAO-A (monoamine oxidase-A) (Homo sapiens, UniProt P21397); test: Activity on recombinant human MAO-A, Amplex Red method, 0.5 mM tyramine substrate; conditions: 0.5 mM tyramine substrate, read-out: Inhibitory Activity (IC50, nM) MAO-A
T4 construct: purchased Sigma-Aldrich
T4 sequence (P21397 1-527): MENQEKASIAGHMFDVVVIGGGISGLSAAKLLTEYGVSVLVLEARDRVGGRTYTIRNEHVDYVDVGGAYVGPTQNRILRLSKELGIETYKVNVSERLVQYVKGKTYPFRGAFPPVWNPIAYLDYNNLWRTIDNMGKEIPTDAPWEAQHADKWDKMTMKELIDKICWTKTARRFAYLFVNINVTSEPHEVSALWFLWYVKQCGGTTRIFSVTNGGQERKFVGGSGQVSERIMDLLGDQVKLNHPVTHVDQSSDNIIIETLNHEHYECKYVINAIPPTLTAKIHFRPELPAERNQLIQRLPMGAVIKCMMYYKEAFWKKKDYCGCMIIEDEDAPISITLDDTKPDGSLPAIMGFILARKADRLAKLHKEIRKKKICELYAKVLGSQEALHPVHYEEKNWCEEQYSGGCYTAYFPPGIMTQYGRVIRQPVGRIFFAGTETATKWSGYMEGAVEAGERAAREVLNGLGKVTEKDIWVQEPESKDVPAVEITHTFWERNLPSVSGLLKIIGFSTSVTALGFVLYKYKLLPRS
Method in brief: as §1

| IC50 [1] [nM] | IC50 (recombinant human VAP-1) [nM] | IC50 [2] [nM] | IC50 [3] [nM] | SMILES |
| --- | --- | --- | --- | --- |
| 17 | 0.63 | < 10 | > 100000 | NC/C(=C\F)Cn1ncn(-c2ccnc(-c3ccc4c(c3)OCO4)c2)c1=O [Example 209, 2-[(2E)-2-(aminomethyl)-3-fluoroprop-2-en-1-yl]-4-[2-(1,3-benzodioxol-5-yl)pyridin-4-yl]-2,4-dihydro-3H-1,2,4-triazol-3-one hydrochloride] |
| > 10000 | 45 | 2200 | > 100000 | COc1ccc(-c2ccc(C)c(-n3cnn(C/C(=C/F)CN)c3=O)n2)cn1 [Example 212, 2-[(2E)-2-(aminomethyl)-3-fluoroprop-2-en-1-yl]-4-(6′-methoxy-5-methyl-2,3′-bipyridin-6-yl)-2,4-dihydro-3H-1,2,4-triazol-3-one hydrochloride] |
| > 10000 | 29 | 1800 | > 100000 | Cc1ccc(-c2ccc3c(c2)OCO3)nc1-n1cnn(C/C(=C/F)CN)c1=O [Example 213, 2-[(2E)-2-(aminomethyl)-3-fluoroprop-2-en-1-yl]-4-[6-(1,3-benzodioxol-5-yl)-3-methylpyridin-2-yl]-2,4-dihydro-3H-1,2,4-triazol-3-one hydrochloride] |
| > 100000 | 23 | 1400 | > 100000 | Cc1ccc(-c2ccc3cn[nH]c3c2)nc1-n1cnn(C/C(=C/F)CN)c1=O [Example 214, 2-[(2E)-2-(aminomethyl)-3-fluoroprop-2-en-1-yl]-4-[6-(1H-indazol-6-yl)-3-methylpyridin-2-yl]-2,4-dihydro-3H-1,2,4-triazol-3-one hydrochloride] |
| > 10000 | 88 | 4200 | > 100000 | Cc1ccc(-c2ccc3c(c2)NC(=O)CO3)nc1-n1cnn(C/C(=C/F)CN)c1=O [Example 216, 6-(6-{1-[(2E)-2-(aminomethyl)-3-fluoroprop-2-en-1-yl]-5-oxo-1,5-dihydro-4H-1,2,4-triazol-4-yl}-5-methylpyridin-2-yl)-2H-1,4-benzoxazin-3 (4H)-one hydrochloride] |
| 110 | 2.2 | < 100 | > 100000 | CS(=O)(=O)c1ccc(-c2cnc(-n3cnn(C/C(=C/F)CN)c3=O)cn2)cc1 [Example 217, 2-[(2E)-2-(aminomethyl)-3-fluoroprop-2-en-1-yl]-4-{5-[4-(methylsulfonyl)phenyl]pyrazin-2-yl}-2,4-dihydro-3H-1,2,4-triazol-3-one] |

The remaining lines, values behind:

| SMILES | IC50 [1] [nM] | IC50 (recombinant human VAP-1) [nM] | IC50 [2] [nM] | IC50 [3] [nM] |
| --- | --- | --- | --- | --- |
| Cc1ccc(-c2cccc(-c3noc(C4CC4)n3)c2)nc1-n1cnn(C/C(=C/F)CN)c1=O [Example 210, 2-[(2E)-2-(aminomethyl)-3-fluoroprop-2-en-1-yl]-4-{6-[3-(5-cyclopropyl-1,2,4-oxadiazol-3-yl)phenyl]-3-methylpyridin-2-yl}-2,4-dihydro-3H-1,2,4-triazol-3-one hydrochloride] | > 10000 | 52 | 4400 | > 100000 |
| Cc1ccc(-c2ccc(C(=O)N3CCOCC3)cc2)nc1-n1cnn(C/C(=C/F)CN)c1=O [Example 211, 2-[(2E)-2-(aminomethyl)-3-fluoroprop-2-en-1-yl]-4-{3-methyl-6-[4-(morpholin-4-ylcarbonyl)phenyl]pyridin-2-yl}-2,4-dihydro-3H-1,2,4-triazol-3-one hydrochloride] | > 10000 | 49 | 3500 | > 100000 |
| Cc1ccc(-c2cc(C)c3c(c2)CCC(=O)N3)nc1-n1cnn(C/C(=C/F)CN)c1=O [Example 215, 6-(6-{1-[(2E)-2-(aminomethyl)-3-fluoroprop-2-en-1-yl]-5-oxo-1,5-dihydro-4H-1,2,4-triazol-4-yl}-5-methylpyridin-2-yl)-8-methyl-3,4-dihydroquinolin-2(1H)-one hydrochloride] | 3500 | 14 | 290 | 96000 |
| NC/C(=C\F)Cn1ncn(-c2cnc(-c3ccc(-c4nc[nH]n4)cc3)cn2)c1=O [Example 218, 2-[(2E)-2-(aminomethyl)-3-fluoroprop-2-en-1-yl]-4-{5-[4-(1H-1,2,4-triazol-3-yl)phenyl]pyrazin-2-yl}-2,4-dihydro-3H-1,2,4-triazol-3-one] | 49 | 1.9 | < 100 | > 100000 |
| NC/C(=C\F)Cn1ncn(-c2cnc(-c3cccc(-c4nc[nH]n4)c3)cn2)c1=O [Example 219, 2-[(2E)-2-(aminomethyl)-3-fluoroprop-2-en-1-yl]-4-{5-[3-(1H-1,2,4-triazol-3-yl)phenyl]pyrazin-2-yl}-2,4-dihydro-3H-1,2,4-triazol-3-one] | 41 | 2.3 | < 100 | > 100000 |
| CC(=O)Nc1cc(-c2cnc(-n3cnn(C/C(=C/F)CN)c3=O)cn2)ccn1 [Example 220, N-[4-(5-{1-[(2E)-2-(aminomethyl)-3-fluoroprop-2-en-1-yl]-5-oxo-1,5-dihydro-4H-1,2,4-triazol-4-yl}pyrazin-2-yl)pyridin-2-yl]acetamide] | 396 | 1.8 | < 100 | > 100000 |
